The text below walks through data of patent US20130197027A1, “HETEROCYCLYL-AZABICYCLO[3.2.1]OCTANE ANALOGS AS SELECTIVE M1 AGONISTS AND METHODS OF MAKING AND USING SAME” (priority 2010, published 2013).

A word on the EC50: it is the midpoint of the concentration-response curve.

Positions count from the first letter of the chain named. Like-named read-outs stand apart in the source and are kept apart here.

The target of one test is T1, hM1 (Homo sapiens, UniProt P11229).
T1 construct: host or cells: CHO-K1
T1 sequence (P11229 1-460): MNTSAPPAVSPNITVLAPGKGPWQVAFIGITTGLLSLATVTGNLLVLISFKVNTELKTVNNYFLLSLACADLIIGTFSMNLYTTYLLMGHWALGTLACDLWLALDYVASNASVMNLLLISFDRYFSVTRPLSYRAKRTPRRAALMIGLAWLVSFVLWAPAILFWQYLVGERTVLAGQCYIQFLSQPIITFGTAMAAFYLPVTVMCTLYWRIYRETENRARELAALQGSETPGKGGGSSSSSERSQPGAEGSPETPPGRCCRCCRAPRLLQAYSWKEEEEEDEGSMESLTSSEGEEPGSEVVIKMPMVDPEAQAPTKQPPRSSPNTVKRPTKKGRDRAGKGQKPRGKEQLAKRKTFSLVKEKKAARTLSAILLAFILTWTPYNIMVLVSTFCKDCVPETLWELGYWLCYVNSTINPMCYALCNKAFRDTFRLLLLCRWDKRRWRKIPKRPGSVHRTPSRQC
In words: Calcium mobilization assay in CHO-K1 cells stably expressing human M1 (high throughput, FDSS 6000). The conditions noted are these: for Emax: HM1, read-out: Efficacy (% Max ACh). The class given is cell-based. From the text: (§1) Chinese hamster ovary (CHO-K1) cells stably expressing rat (r) M1 were purchased from the American Type Culture Collection and cultured according to their indicated protocol. CHO cells stably expressing human (h)M2, hM3, and hM5 were described previously (Levey et al., 1991); hM1 and hM4 cDNAs were purchased from Missouri S&T cDNA Resource; rM4 cDNA was provided by T. I. Bonner (National Institutes of Health, Bethesda, Md.). hM1, hM4, and rM4 cDNAs were used to stably transfect CHO-K1 cells purchased from the American Type Culture Collection using Lipofectamine2000. To make stable hM2, hM4 and rM4 cell lines for use in calcium mobilization assays, these cells also were stably transfected with a chimeric G-protein (Gqi5) (provided by B. R. Conklin, University of California, San Francisco) using Lipofectamine 2000. rM1, hM3, and hM5 cells were grown in Ham's F-12 medium containing 10% heat-inactivated fetal bovine serum (FBS), 20 mM HEPES, and 50 μg/mL G418 sulfate. hM2-Gqi5 and hM4-Gqi5 cells were grown in the same medium also containing 500 μg/mL Hygromycin B. Stable rM4-Gqi5 cells were grown in DMEM containing 10% heat-inactivated FBS, 20 mM HEPES, 400 μg/mL G418 sulfate, and 500 μg/mL Hygromycin B. The rat M1 Y381A orthosteric mutant receptor cDNA was generated using the Quik-Change site-directed mutagenesis kit (Stratagene) and verified by sequencing. CHO-K1 cells were stably transfected with this cDNA using Lipofectamine2000 and screened for expression based on calcium mobilization in response to the allosteric M1 agonist N-desmethylclozapine.
For high throughput measurement of agonist-evoked increases in intracellular calcium, CHO-K1 cells stably expressing muscarinic receptors were plated in growth medium lacking G418 and hygromycin at 15,000 cells/20 μL/well (hM1, hM2-Gqi5, hM3, hM4-Gqi5, and hM5) in Greiner 384-well black-walled, tissue culture (TC)-treated, clear-bottom plates (VWR). Cells were incubated overnight at 37° C. and 5% CO2. The next day, cells were washed using an ELX 405 (BioTek) with three washes (50 μL) of assay buffer then aspirated to 15 μL. Next, 5 μL of 8 μM Fluo-4/acetoxymethyl ester (Invitrogen, Carlsbad, Calif.) prepared as a 2.3 mM stock in DMSO and mixed in a 1:1 ratio with 10% (w/v) Pluronic F-127 and diluted in assay buffer was added to the wells and the cell plates were incubated for 45 min at 37° C. and 5% CO2. Dye was removed by washing with the ELX 405 (three 50 μL washes of assay buffer) then aspirated to 20 μL. Agonist and compound master plates were formatted in an 11 point CRC format (1:3 dilutions) in 100% DMSO with a starting concentration of 10 mM using the BRAVO liquid handler (Agilent). Test compound CRCs were then transferred to daughter plates ([…]) using the Echo acoustic plate reformatter (Labcyte, Sunnyvale, Calif.) and then diluted into assay buffer (40 μL) to a 2× stock using a Thermo Fisher Combi (Thermo Fisher Scientific, Waltham, Mass.). Calcium flux was measured using the Functional Drug Screening System (FDSS) 6000 (Hamamatsu Corporation, Tokyo, Japan) as an increase in the fluorescent static ratio. 20 μL of Agonist Compounds were applied to cells using the automated system of the FDSS 6000 at 4 s into the 300 s protocol and the data were collected at 1 Hz. Concentration-response curves were generated using a four-parameter logistical equation in XLfit curve fitting software (IDBS, Bridgewater, N.J.) for Excel (Microsoft, Redmond, Wash.) or Prism (GraphPad Software, Inc., San Diego, Calif.).

For another test, the target named is T2, rM1 (Rattus norvegicus, UniProt P08482).
T2 construct: host or cells: CHO-K1
T2 sequence (P08482 1-460): T1 sequence (P11229 1-460) with A5V, T254S, P309S, R320K, A337G, I413V
The test is described as follows: Calcium mobilization assay in CHO-K1 cells stably expressing rat M1 (low throughput, Flexstation II). The class given is cell-based. To be noted: for Emax: RM1, read-out: Efficacy (% Max ACh).
Excerpt: as §1
For low throughput measurement of agonist-evoked increases in intracellular calcium, CHO-K1 cells stably expressing muscarinic receptors were plated in 100 μL of growth medium at 5×10^4 (rM1, hM3, and hM5) or 6×10^4 cells per well (rM1 Y381A, hM2, and rM4) in Costar 96-well black-walled, tissue culture (TC)-treated, clear-bottom plates (Fisher). Cells were incubated overnight at 37° C. and 5% CO2. The next day, medium was removed from the cells, and they were incubated with 50 μL of 2 μM Fluo-4/acetoxymethyl ester (Invitrogen, Carlsbad, Calif.) prepared as a 2.3 mM stock in DMSO and mixed in a 1:1 ratio with 10% (w/v) Pluronic F-127 and diluted in assay buffer [HBSS (Invitrogen) supplemented with 20 mM HEPES and 2.5 mM probenecid, pH 7.4] for 1 h at 37° C. and 5% CO2. Dye was removed and replaced with 50 μL of assay buffer. For calcium fluorescence measurements, CRCs of compounds (50 μl, 2×) were added 19 s after the beginning of data collection via a Flexstation II (Molecular Devices, Sunnyvale, Calif.). Fluorescence imaging continued for a total of 130 s acquisition time using an excitation wavelength of 488 nm, an emission wavelength of 525 nm, and a cutoff wavelength of 515 nm. All of the peaks of the calcium response were normalized to the response to a maximally effective concentration of ACh (ECmax). These normalized peak calcium response values were fit using GraphPad Prism version 4.0 to a four-parameter logistic equation to determine EC50 values.
(In general: Calcium assays in cells follow changes in intracellular calcium, usually with a dye or a luminescent sensor.)

On to `CCOC(=O)N1C2CCC1CC(N1CCC[C@@H](NC(=O)c3cccc(OC)c3)C1)C2` (stereo partly drawn) [Example 4, ethyl 3-((R)-3-(3-methoxybenzamido)piperidin-1-yl)-8-azabicyclo[3.2.1]octane-8-carboxylate], for which, on hM1, the concentration for a half-maximal effect (EC50) came out at 250 nM and the Emax was determined as 76%. Further, on rM1, the EC50 came to 52 nM and the Emax turned out to be 94%.
As for `CCOC(=O)N1C2CCC1CC(N1CCC[C@@H](NC(=O)OC(C)(C)C)C1)C2` (stereo partly drawn) [Example 1, ethyl 3-((R)-3-((tert-butoxycarbonyl)amino)piperidin-1-yl)-8-azabicyclo[3.2.1]octane-8-carboxylate], the Emax at hM1 was found to be 29%; on rM1, 74%. Besides, the EC50 on hM1 (agonist-evoked calcium mobilization, CHO-K1 hM1 cells, read-out: hM1 Potency (EC50)) worked out at 2000 nM; on rM1 (agonist-evoked calcium mobilization, CHO-K1 rM1 cells, read-out: rM1 Potency (EC50)) it was 267 nM.
